Source: patent US20240254087A1, “SELECTIVE, PARTIAL, AND ARRESTIN-BIASED 5-HT2A AGONISTS WITH UTILITY IN VARIOUS DISORDERS” (Saint Joseph's University, priority 2021, published 2024)
Like-named read-outs stand apart in the source and are kept apart here.

What was measured:
5-HT2A [1] = assay: Ca2+ flux assay, 5-HT2A; type: cell-based, human; settings: Gq/11 Ca2+ mobilization; higher number = skewed towards 5-HT2A
5-HT1A = target: T1, 5-HT1A (Homo sapiens, UniProt P08908); assay: Competitive radioligand binding (NIMH PDSP)
T1 sequence (P08908 1-422): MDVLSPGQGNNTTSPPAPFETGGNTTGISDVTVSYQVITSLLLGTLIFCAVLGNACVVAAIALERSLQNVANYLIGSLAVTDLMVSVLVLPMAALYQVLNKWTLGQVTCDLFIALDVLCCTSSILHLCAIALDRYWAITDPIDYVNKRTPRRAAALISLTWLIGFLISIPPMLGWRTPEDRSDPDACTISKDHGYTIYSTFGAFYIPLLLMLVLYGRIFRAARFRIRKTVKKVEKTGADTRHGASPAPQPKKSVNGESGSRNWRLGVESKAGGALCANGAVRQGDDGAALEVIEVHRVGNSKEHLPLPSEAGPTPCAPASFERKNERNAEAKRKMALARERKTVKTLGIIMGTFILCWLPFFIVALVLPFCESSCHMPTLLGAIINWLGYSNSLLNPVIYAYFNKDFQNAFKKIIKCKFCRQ

5-HT1B = 5-HT1B (Homo sapiens, UniProt P28222); assay: Competitive radioligand binding (NIMH PDSP)
5-HT1B, sequence (P28222 whole entry, species assumed): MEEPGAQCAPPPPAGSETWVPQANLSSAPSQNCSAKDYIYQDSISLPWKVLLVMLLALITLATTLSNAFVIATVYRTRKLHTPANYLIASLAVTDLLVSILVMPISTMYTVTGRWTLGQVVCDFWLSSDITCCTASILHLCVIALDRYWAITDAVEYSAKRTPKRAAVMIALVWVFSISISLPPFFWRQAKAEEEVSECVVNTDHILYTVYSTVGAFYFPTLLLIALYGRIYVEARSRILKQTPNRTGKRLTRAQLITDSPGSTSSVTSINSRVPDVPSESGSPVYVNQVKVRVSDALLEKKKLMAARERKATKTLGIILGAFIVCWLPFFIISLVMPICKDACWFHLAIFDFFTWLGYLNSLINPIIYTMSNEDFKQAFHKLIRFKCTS

5-HT1D = 5-HT1D (Homo sapiens, UniProt P28221); assay: Competitive radioligand binding (NIMH PDSP)
5-HT1D, sequence (P28221 whole entry, species assumed): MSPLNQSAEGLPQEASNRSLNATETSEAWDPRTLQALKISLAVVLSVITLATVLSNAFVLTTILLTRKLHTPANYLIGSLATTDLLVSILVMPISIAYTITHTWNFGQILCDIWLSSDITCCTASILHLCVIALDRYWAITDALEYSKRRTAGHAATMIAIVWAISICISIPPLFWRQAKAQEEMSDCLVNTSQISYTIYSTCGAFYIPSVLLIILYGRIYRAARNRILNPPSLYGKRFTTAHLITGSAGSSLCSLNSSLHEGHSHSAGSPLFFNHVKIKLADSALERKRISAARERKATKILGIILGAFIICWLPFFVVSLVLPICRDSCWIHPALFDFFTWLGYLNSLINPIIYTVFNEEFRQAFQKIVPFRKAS

5-HT1e = 5-HT1e (Homo sapiens, UniProt P28566); assay: Competitive radioligand binding (NIMH PDSP)
5-HT1e, sequence (P28566 whole entry, species assumed): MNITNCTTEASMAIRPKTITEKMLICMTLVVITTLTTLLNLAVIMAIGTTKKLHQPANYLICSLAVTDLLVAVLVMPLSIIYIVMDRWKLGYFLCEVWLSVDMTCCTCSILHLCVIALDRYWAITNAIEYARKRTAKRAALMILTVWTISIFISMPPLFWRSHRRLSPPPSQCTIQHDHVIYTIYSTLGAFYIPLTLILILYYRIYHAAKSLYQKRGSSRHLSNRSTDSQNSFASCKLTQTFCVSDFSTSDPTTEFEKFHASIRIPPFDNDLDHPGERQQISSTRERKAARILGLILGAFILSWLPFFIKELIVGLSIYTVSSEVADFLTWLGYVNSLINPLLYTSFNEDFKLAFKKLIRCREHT

5-HT2A [2] = target: T2, 5-HT2A (Homo sapiens, UniProt P28223); assay: Competitive radioligand binding (NIMH PDSP)
T2 sequence (P28223 whole entry): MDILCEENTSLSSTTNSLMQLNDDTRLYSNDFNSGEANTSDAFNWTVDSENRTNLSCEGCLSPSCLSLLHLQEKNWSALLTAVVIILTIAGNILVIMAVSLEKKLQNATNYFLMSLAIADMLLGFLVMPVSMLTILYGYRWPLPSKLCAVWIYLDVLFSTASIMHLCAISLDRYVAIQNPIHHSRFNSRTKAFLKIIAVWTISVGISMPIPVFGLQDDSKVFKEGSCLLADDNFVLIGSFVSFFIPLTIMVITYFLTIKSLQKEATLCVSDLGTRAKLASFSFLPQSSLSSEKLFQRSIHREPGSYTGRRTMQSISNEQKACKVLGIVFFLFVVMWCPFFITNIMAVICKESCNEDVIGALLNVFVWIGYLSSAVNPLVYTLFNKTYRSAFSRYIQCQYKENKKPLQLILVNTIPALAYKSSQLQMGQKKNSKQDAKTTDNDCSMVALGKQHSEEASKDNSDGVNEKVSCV

5-HT3 = target: T3, 5-HT3 (Homo sapiens, UniProt P46098); assay: Competitive radioligand binding (NIMH PDSP)
T3 sequence (P46098 24-478): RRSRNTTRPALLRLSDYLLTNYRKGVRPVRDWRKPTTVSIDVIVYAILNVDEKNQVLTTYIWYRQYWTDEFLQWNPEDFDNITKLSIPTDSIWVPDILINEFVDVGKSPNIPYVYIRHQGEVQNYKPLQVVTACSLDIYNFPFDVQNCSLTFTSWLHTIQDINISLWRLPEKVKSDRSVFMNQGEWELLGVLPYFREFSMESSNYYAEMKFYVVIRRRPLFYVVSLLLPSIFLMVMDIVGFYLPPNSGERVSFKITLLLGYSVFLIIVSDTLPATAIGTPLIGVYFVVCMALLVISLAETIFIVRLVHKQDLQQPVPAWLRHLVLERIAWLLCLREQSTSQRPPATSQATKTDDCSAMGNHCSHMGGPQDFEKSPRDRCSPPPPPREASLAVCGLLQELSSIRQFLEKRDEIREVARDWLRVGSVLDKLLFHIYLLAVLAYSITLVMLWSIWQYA
In short: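 Compounds dissolved in DMSO were screened at 10,000 nM for displacement of the radioligand from each receptor. Those advanced to Ki determination were tested in triplicate on separate plates alongside a known ligand as positive control. 5-HT2A binding used [3H]-ketanserin with human receptor-expressing membranes.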

5-HT2A [3] = target: T2, 5-HT2A; assay: Ca2+ flux assay, 5-HT2A; type: cell-based; set-up: expressed in transfected cells; settings: for Emax: read-out: 5-HT2A Emax % 5-HT, Ca2+ flux
5-HT2B [4] = target: T4, 5-HT2B (Homo sapiens, UniProt P41595); assay: Ca2+ flux assay, 5-HT2B; type: cell-based; set-up: expressed in transfected cells; settings: Ca2+ flux; for Emax: read-out: 5-HT2B Emax % 5-HT
T4 sequence (P41595 whole entry): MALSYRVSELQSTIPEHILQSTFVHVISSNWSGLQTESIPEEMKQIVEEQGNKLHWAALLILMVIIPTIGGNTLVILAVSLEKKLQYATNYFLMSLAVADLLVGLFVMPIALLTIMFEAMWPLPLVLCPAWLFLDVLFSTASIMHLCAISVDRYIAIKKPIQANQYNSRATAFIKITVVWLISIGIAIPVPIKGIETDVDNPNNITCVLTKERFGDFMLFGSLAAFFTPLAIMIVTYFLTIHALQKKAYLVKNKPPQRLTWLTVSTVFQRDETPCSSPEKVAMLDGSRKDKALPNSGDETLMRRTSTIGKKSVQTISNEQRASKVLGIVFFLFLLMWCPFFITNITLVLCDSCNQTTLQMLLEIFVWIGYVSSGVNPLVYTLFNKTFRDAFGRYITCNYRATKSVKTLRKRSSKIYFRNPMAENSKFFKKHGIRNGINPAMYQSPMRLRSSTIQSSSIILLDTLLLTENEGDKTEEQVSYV

5-HT2C [5] = target: T5, 5-HT2C (Homo sapiens, UniProt P28335); assay: Ca2+ flux assay, 5-HT2C; type: cell-based; set-up: expressed in transfected cells; settings: for Emax: read-out: 5-HT2C Emax % 5-HT
T5 sequence (P28335 33-458): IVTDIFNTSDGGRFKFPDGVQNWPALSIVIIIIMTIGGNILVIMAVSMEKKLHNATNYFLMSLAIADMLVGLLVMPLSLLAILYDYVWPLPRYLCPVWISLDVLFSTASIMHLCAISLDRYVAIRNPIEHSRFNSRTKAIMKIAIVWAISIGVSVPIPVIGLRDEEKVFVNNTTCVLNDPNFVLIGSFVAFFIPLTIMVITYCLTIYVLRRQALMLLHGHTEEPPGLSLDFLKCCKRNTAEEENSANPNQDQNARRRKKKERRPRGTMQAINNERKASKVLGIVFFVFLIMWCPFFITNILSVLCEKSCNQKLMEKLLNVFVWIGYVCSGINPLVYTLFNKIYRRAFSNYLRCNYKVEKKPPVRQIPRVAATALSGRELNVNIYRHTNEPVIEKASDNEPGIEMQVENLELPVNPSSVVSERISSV

5-HT2B [6] = target: T4, 5-HT2B; assay: Competitive radioligand binding (NIMH PDSP); set-up: expressed in transfected cells
5-HT2C [7] = target: T5, 5-HT2C; assay: Competitive radioligand binding (NIMH PDSP); set-up: expressed in transfected cells

SMILES | 5-HT2A/5-HT2c Selectivity Factor ΔLog(Emax/EC50) (5-HT2A [1]) | 5-HT2B EC50, nM (5-HT2B [4]) | Ki (5-HT1A) [nM] | Ki (5-HT1B) [nM] | Ki (5-HT1D) [nM] | Ki (5-HT1e) [nM] | Ki (5-HT2A [2]) [nM] | Ki (5-HT3) [nM] | Emax (5-HT2A [3]) [%] | Emax (5-HT2B [4]) [%] | Emax (5-HT2C [5]) [%] | Ki (5-HT2B [6]) [nM] | Ki (5-HT2C [7]) [nM] | also measured
COc1cc([N+](=O)[O-])c(OC)cc1CCNCc1ccccc1OC(F)(F)F [25N-NBOCF3 (12)] | 6.1 | No activity |  |  |  |  |  |  |  |  |  |  |  | 5-HT1A pKi affinity (Ki ± SEM) (5-HT1A): 5.95; 5-HT1B pKi affinity (Ki ± SEM) (5-HT1B): <5; 5-HT1D pKi affinity (Ki ± SEM) (5-HT1D): <5; 5-HT1e pKi affinity (Ki ± SEM) (5-HT1e): <5; 5-HT2A pKi affinity (Ki ± SEM) (5-HT2A [2]): 7.84; 5-HT3 pKi affinity (Ki ± SEM) (5-HT3): <5; 5-HT2A (pEC50 ± SEM) (5-HT2A [3]; Ca2+ flux): (8.09 ± 0.09); 5-HT2A Emax % 5-HT (5-HT2A [3]; Ca2+ flux): 75 ± 2 % 5-HT; EC50 (5-HT2A [3]; Ca2+ flux, read-out: 5-HT2A EC50): 8.09 nM; 5-HT2B Emax % 5-HT (5-HT2B [4]): <10 % 5-HT; 5-HT2C (pEC50 ± SEM) (5-HT2C [5]): (7.23 ± 0.04); 5-HT2C Emax % 5-HT (5-HT2C [5]): 89 ± 1 % 5-HT; EC50 (5-HT2C [5]; read-out: 5-HT2C EC50): 58.3 nM; 5-HT2B pKi affinity (Ki ± SEM) (5-HT2B [6]): 7.86; 5-HT2C pKi affinity (Ki ± SEM) (5-HT2C [7]): 7.33
COc1cc([N+](=O)[O-])c(OC)cc1CCNCc1ccccc1OC [25N-NBOMe (4), [2-(2,5-dimethoxy-4-nitrophenyl)ethyl] [(2-methoxyphenyl)methyl]amine] | 2.4 | No activity | 1860 | > 10000 | 5620 | > 10000 | 0.55 | > 10000 | 94 | < 10 | 102 ± 1 | 4.47 | 6.92 | EC50 (5-HT2A [3]; 5-HT2A (pEC50 ± SEM), Ca2+ flux): 0.316 nM; EC50 (5-HT2C [5]; 5-HT2C (pEC50 ± SEM)): 0.851 nM; EC50 (5-HT2C [5]; 5-HT2C EC50, nM): 0.84 nM
COc1cc([N+](=O)[O-])c(OC)cc1CCNCc1ccccc1-c1ccccc1 [25N-NBPh (17), ({[1,1′-biphenyl]-2-yl}methyl)[2-(2,5-dimethoxy-4-nitrophenyl)ethyl]amine] | 5-HT2A Selective | No activity | 1780 | > 10000 | 1200 | > 10000 | 0.331 | > 10000 | < 10 | < 10 | < 10 | 1410 | 372 | 5-HT2A EC50, nM (5-HT2A [3]; Ca2+ flux): No activity; 5-HT2C EC50, nM (5-HT2C [5]): No activity
